In article PMC3265452 (PLoS Neglected Tropical Diseases, 2012):
Structures can show the parent of a compound that is named as a salt.

Each compound was assayed against AaDOP2 (Aedes aegypti, UniProt H6D5H2) (assay: AaDOP2 antagonist screen of the LOPAC1280 library (HEK-CRELuc-Aadop2 cells, luminescence)). Settings: not given.
Type: cell-based

AaDOP2, sequence (H6D5H2 1-476): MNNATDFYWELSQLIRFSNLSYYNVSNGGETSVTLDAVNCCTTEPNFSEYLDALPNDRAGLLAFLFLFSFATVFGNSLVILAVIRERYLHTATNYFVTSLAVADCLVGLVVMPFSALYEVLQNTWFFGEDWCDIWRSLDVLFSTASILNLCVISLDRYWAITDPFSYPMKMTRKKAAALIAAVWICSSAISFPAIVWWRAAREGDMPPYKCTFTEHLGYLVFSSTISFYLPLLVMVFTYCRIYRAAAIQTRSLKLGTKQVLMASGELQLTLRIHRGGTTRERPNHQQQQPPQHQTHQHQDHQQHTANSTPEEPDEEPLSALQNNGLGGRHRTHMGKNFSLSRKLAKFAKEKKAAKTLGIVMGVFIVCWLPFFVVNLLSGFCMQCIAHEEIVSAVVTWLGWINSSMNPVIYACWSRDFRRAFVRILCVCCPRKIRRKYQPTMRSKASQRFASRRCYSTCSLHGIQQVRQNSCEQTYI

Structure (SMILES)	Compound effect (percent receptor signaling in presence of test compound, relative lux units relative to the SCH23390 control)
COc1cccc2c1[C@@H]1CN(CCCCn3c(=O)[nH]c4c(sc5ncc(-c6ccccc6)nc54)c3=O)C[C@@H]1CO2 [Compound 517, Fiduxosin hydrochloride]	69
NS(=O)(=O)c1cc(C(=O)O)c(NCc2ccco2)cc1Cl [Compound 518, Furosemide]	129
CC(C)OC(=O)C(C)(C)Oc1ccc(C(=O)c2ccc(Cl)cc2)cc1 [Compound 521, Fenofibrate]	95
O=C1NCC2(CCN(CCc3ccccc3)CC2)O1 [Compound 522, Fenspiride hydrochloride]	98
CCOC(=O)c1ncn2c1CN(C)C(=O)c1cc(F)ccc1-2 [Compound 523, Flumazenil]	124
CCCCc1ccc(C(=O)O)nc1 [Compound 525, Fusaric acid]	152
O=c1[nH]cc(F)c(=O)[nH]1 [Compound 526, 5-Fluorouracil]	156
O=C(NCC1CCCCN1)c1cc(OCC(F)(F)F)ccc1OCC(F)(F)F (centres unmarked) [Compound 527, Flecainide acetate]	111
Oc1ccc(C2CNCCc3c2cc(O)c(O)c3Cl)cc1 (centres unmarked) [Compound 528, Fenoldopam bromide]	112
C=C[C@@]1(C)CC(=O)[C@]2(O)[C@@]3(C)[C@@H](O)CCC(C)(C)[C@@H]3[C@H](O)[C@H](OC(C)=O)[C@@]2(C)O1 [Compound 529, Forskolin]	46
NC(N)=Nc1nc(CSCCC(N)=NS(N)(=O)=O)cs1 [Compound 530, Famotidine]	115
Fc1ccc(C(c2ccc(F)cc2)N2CCN(C/C=C/c3ccccc3)CC2)cc1 [Compound 533, Flunarizine dihydrochloride]	71
C[C@H]1O[C@@H](n2cc(F)c(=O)[nH]c2=O)[C@H](O)[C@@H]1O [Compound 534, 5-fluoro-5'-deoxyuridine]	111
CC(C)C(=O)Nc1ccc([N+](=O)[O-])c(C(F)(F)F)c1 [Compound 536, Flutamide]	99
CC(C)(C(=O)O)c1ccc(C(O)CCCN2CCC(C(O)(c3ccccc3)c3ccccc3)CC2)cc1 (centres unmarked) [Compound 537, Fexofenadine hydrochloride]	87
CCOC(=O)C1=C(C)NC(C)=C(C(=O)OC)C1c1cccc(Cl)c1Cl (centres unmarked) [Compound 539, Felodipine]	96
O=C1NCN(c2ccccc2)C12CCN(CCCC(c1ccc(F)cc1)c1ccc(F)cc1)CC2 [Compound 540, Fluspirilene]	53
Cc1nc2c([nH]1)c(=O)n(C)c(=O)n2Cc1ccco1 [Compound 542, Furafylline]	120
COC(=O)c1c(C)[nH]c(C)c1C(=O)c1ccccc1Cc1ccccc1 [Compound 543, FPL 64176]	86
CNCCC(Oc1ccc(C(F)(F)F)cc1)c1ccccc1 (centres unmarked) [Compound 544, Fluoxetine hydrochloride]	118
NCC(=O)NCCC(c1ccccc1)c1ccccc1 [Compound 545, N-(3,3-Diphenylpropyl)glycinamide]	105
COc1ccc(Cl)cc1C(=O)NCCc1ccc(S(=O)(=O)NC(=O)NC2CCCCC2)cc1 [Compound 546, Glibenclamide]	118

Structure (SMILES)	Compound effect (percent receptor signaling in presence of test compound, relative lux units relative to the SCH23390 control)
CN(C)c1cc2c(Nc3ccc4c(cnn4Cc4ccccc4)c3)ncnc2cn1 [Compound 547, GW2974]	68
N=C(N)NC(=O)Cc1c(Cl)cccc1Cl [Compound 548, Guanfacine hydrochloride]	112
Nc1nc(O)c2ncn(COC(CO)CO)c2n1 [Compound 550, Ganciclovir]	92
NC(=O)CC[C@H](N)C(=O)O [Compound 551, L-Glutamine]	115
NC(N)=Nc1ccc2[nH]c3c(c2c1)C[C@@]1(O)[C@H]2Cc4ccc(O)c5c4[C@@]1(CCN2CC1CC1)[C@H]3O5.O=C(O)C(F)(F)F.O=C(O)C(F)(F)F [Compound 552, Guanidinyl-naltrindole di-trifluoroacetate]	120
CN(CCOc1ccc(C[C@H](Nc2ccccc2C(=O)c2ccccc2)C(=O)O)cc1)c1ccccn1 [Compound 554, GW1929]	131
O=C1Nc2ccc(I)cc2/C1=C/c1cc(Br)c(O)c(Br)c1 [Compound 555, GW5074]	25
O=c1c(-c2ccc(O)cc2)coc2cc(O)cc(O)c12 [Compound 556, Genistein]	67
CC(C)(Sc1ccc(CCN(CCCCC2CCCCC2)C(=O)NC2CCCCC2)cc1)C(=O)O [Compound 557, GW7647]	50
CC[N+](CC)(CC)CCOc1cccc(OCC[N+](CC)(CC)CC)c1OCC[N+](CC)(CC)CC [Compound 559, Gallamine triethiodide]	120
Cl.Cl.c1ccc(CCCN2CCN(CCOC(c3ccccc3)c3ccccc3)CC2)cc1 [Compound 560, GBR-12935 dihydrochloride]	61
O=C(O)C1=CCNCC1 [Compound 561, Isoguvacine hydrochloride]	71
O=C(O)C1=CCCNC1 [Compound 562, Guvacine hydrochloride]	94
Br.NCc1cc(O)no1 [Compound 564, Muscimol hydrobromide]	130
N=C(N)N/N=C/c1c(Cl)cccc1Cl [Compound 565, Guanabenz acetate]	156
Cc1cnc(C(=O)NCCc2ccc(S(=O)(=O)NC(=O)NC3CCCCC3)cc2)cn1 [Compound 567, Glipizide]	103
CC1=NN=C(c2ccc(N)cc2)c2cc3c(cc2C1)OCO3.Cl [Compound 568, GYKI 52466 hydrochloride]	90
CC1Cc2cc3c(cc2C(c2ccc(N)cc2)=NN1)OCO3 (centres unmarked) [Compound 569, GYKI 52895]	71
COC(=O)N1CCN(C(=O)Cc2ccc(Cl)c(Cl)c2)C(CN2CCCC2)C1.O=C(O)/C=C/C(=O)O (centres unmarked) [Compound 570, GR-89696 fumarate]	79
NCC1(CC(=O)O)CCCCC1 [Compound 571, Gabapentin]	112
C[N+](C)(C)CCCCCC[N+](C)(C)C [Compound 575, Hexamethonium bromide]	91

Same assay, conditions: 10 µM compound, 300 nM dopamine, 2 hr; hit = compound effect <20

Structure (SMILES)	Compound effect (percent receptor signaling in presence of test compound, relative lux units relative to the SCH23390 control) [%]
O=C([O-])c1cc2cc(Cc3cccnc3)ccc2o1.[Na+] [Compound 516, Furegrelate sodium]	146
N[C@@H](Cc1ccc(F)cc1)C(=O)O [Compound 519, p-Fluoro-L-phenylalanine]	97
COc1cc(=O)n(C)c2c(OCC(O)C(C)(C)O)cccc12 (centres unmarked) [Compound 524, Foliosidine]	190
CCCn1c(=O)c2[nH]c(C3CCCC3)nc2n(CCCOC(=O)c2ccc(S(=O)(=O)F)cc2)c1=O [Compound 531, FSCPX]	97
CC(C)=CCC/C(C)=C/CC/C(C)=C/CSc1ccccc1C(=O)O [Compound 532, Farnesylthiosalicylic acid]	120
Cl.N[C@@H](CCC(=O)O)C(=O)O [Compound 549, L-Glutamic acid hydrochloride]	93
Br.Br.N=C(N)NCCSSCCNC(=N)N [Compound 553, Guanidinoethyl disulfide dihydrobromide]	105
N=C(N)NC(CCC(=O)O)C(=O)O (stereo not drawn) [Compound 558, alpha-Guanidinoglutaric acid]	121
N[C@H](CCC(=O)NCS(=O)(=O)O)C(=O)O [Compound 566, gamma-D-Glutamylaminomethylsulfonic acid]	109
COc1cc2c(CCNC(C)=O)c[nH]c2cc1O [Compound 574, 6-Hydroxymelatonin]	101
